Common to all, as to assay type: cell-based, human
For one experiment, the system named is σ. Briefly: σ gene expression by RT-PCR after 5-aza-dC. The note with it: Hs578t and MDA-MB-435 cells; 0.75 μM 5-aza-dC for 3 days. The procedure:
(§1) Cells were seeded at a density of 2×10^6 cells per 100-mm plate.
RT-PCR. […] PCR was performed using the σ-specific primers 5′-[…]-3′ (SEQ ID NO:41) and 5′-[…]-3′ (SEQ ID NO:42) using buffer conditions described herein. The PCR conditions were: 1 cycle of 95° C. for 5 min; 30 cycles of 60° C. for 45s, 72° C. for 45s and 95° C. for 45s. PCR samples were resolved by electrophoresis in a 2% agarose gel.

For another experiment, the system named is MDA-MB-231 cells. The experiment is described as follows: Growth inhibition (%) by cell counting with Trypan Blue. From the text:
(§2) Cell cultures Human epithelial mammary cells (HEMC) from reduction mammoplasty including three mortal strains, 184, 48R and 172R, and two immortal strains, 184A1 and 184B5, were obtained and cultured according to the protocols designed by Dr Martha Stampfer (see the HMEC Homepage, http://www.lbl.gov/*mrgs/index.htlm) using Clonetics (Walkersville, Md., USA) reagents. Human breast cancer cell lines were maintained in Dulbecco's modified Eagle's medium (GIBCO) (Hs578t,MCF-7, MDA-MB-231 and T47D) or IMEM medium (Biofluids) (MDA-MB-435, MDA-MB-468, ZR751) with 5% fetal calf serum (FCS). For drug treatments, exponentially growing cells were seeded in 10 cm^2 plates at a density of 36105 cells/plate or in 6-well plates at 16105 cells/well. Cells were allowed to attach overnight before the addition of the appropriate concentration of 5-Aza-2′ deoxycytidine (5-Aza-CdR) (Sigma), Trichostatin A (TSA) (Sigma) or RA(Sigma). When reduction of retinoids was required, cells were treated in either medium with 0.5% FCS or charcoal-dextran stripped FCS (Hyclone). At the indicated time points, both attached and detached cells were harvested, counted with Trypan Blue (Life Technologies) and processed for DNA or RNA extraction. 5-Aza-CdR was dissolved in 0.45% NaCl containing 10 mM sodium phosphate (pH 6.8). Trichostatin A and all-trans-retinoic acid (RA) (Sigma) were reconstituted in absolute ethanol (solvent).

Another experiment has as its system σ CpG island. Briefly: Methylation-specific PCR of the σ CpG island after 5-aza-dC. The note with it: Hs578t and MDA-MB-435 cells; 0.75 μM 5-aza-dC for 3 days. How it is done: Methylation-specific PCR (MSP). One μg genomic DNA was treated with sodium bisulfite as described in (Herman, et al. (1996) Proc. Natl. Acad. Sci. USA 93, 9821-9826), and was analyzed by MSP using a primer set that covered CG dinucleotide numbers 3, 4, 8 and 9. Primers specific for methylated DNA: 5′-[…]-3′ (sense; SEQ ID NO:37) and 5′-[…]-3′ (antisense; SEQ ID NO:38), and primers specific for unmethylated DNA: 5′-[…]-3′ (sense; SEQ ID NO:39) and 5′-[…]-3′(antisense; SEQ ID NO:40) yielded a 105-107 bp PCR product. The PCR conditions were as follows: 1 cycle of 95° C. for 5 min; 31 cycles of 95° C. for 45s, 56° C. for 30s and 72° C. for 30s; and 1 cycle of 72° C. for 4 min.
as §1

A further experiment relates to cyclin D2 promoter. The experiment is described as follows: Methylation-specific PCR of the cyclin D2 promoter after 5-aza-dC. The note with it: MDAMB231 and MCF7 cells; 0.75 μM 5-aza-dC. The procedure: Methylation-specific PCR (MSP). One μg genomic DNA or the 50 ul extract of microdissected cells was treated with sodium bisulfite as described in Herman J G, (1996), and was analyzed by MSP using primer sets located within the CpG-rich island in the cyclin D2 promoter. Primers specific for unmethylated DNA were 5′-[…]-3′ (sense; SEQ ID NO:21) and 5′-[…]-3′ (antisense; SEQ ID NO:22) and yielded a 223 base-pairs PCR product. Primers specific for methylated DNA were 5′-[…]-3′ (sense; SEQ ID NO:23) and 5′-[…]-3′ (antisense; SEQ ID NO:24) and yielded a 276 base-pair PCR product. The PCR conditions were as follows: 1 cycle of 95° C. for 5 min; 35 cycles of 95° C. for 30s, 55° C. for 30s and 72° C. for 45s; and 1 cycle of 72° C. for 5 min.

The subject of another experiment is 14.3.3σ. Briefly: 14.3.3σ expression in the same treated samples. The note with it: same samples: MDA-MB-231 and MCF-7 cells treated with 5-aza-deoxyC or TSA. From the text: (§3) Cell lines and finite life span cultures Cell lines were obtained from ATCC (Rockville, Md.) and grown according to conditions specified. Also utilized were three independent cultures of finite life span human mammary epithelial cells (HMEC): 16637 (Clonetics, Walkersville, Md.) and 1-26, 3-14 (kindly provided by Dr. Steve Ethier, Univ. Michigan, Ann Arbor, Mich.).

The next experiment deals with cyclin D2. Briefly: Cyclin D2 mRNA re-expression by RT-PCR after 5-aza-dC or TSA. The note with it: MDAMB231 and MCF7 cells. The procedure:
RT-PCR. […] PCR was performed using the primers [NT] (sense; SEQ ID NO:15) and [NT] […] (sense; SEQ ID NO: 17) and [NT] […] (sense; SEQ ID NO:19) and [NT] antisense; SEQ ID NO:20).

Another experiment concerns WT1. Briefly: WT1 expression by RT-PCR after treatment of breast cancer cell lines with 5-aza-dC or TSA.
Excerpt: as §3
RT-PCR for WT1 mRNA Methods for RNA extraction and RT-PCR are known to those of skill in the art. The sequences of the primers used are as follows: for amplifying the 555 bp region surrounding WT1 exon 5, 5′-[…]-3′ (sense, nucleotides 882-901; Q ID NO:1) and 5′-[…]-3′ (antisense, nucleotides 1416-1437; SEQ ID NO:2); for amplifying the 382 bp region surrounding the KTS insert, 5′-[…]-3′ (sense, nucleotides 1320-1339; SEQ ID NO:3) and 5′-[…]-3′ (antisense, nucleotides 1685-1702; SEQ ID NO:4). Amplification was performed using a hot-start protocol: samples were heated to 94° C. for 4 minutes and then cooled to 80° C. prior to the addition of Taq polymerase (RedTaq, Sigma, St. Louis, Mo.). Samples were then heated to 94° C. for 30 seconds followed by either 50° C. for 30 seconds (for the KTS primers) or 56° C. for 30 seconds (for the Exon 5 primers) and then 72° C. for 1 minute for 40 cycles. PCR products were resolved by electrophoresis, using a 2% agarose gel for the exon 5-splice variants and a 12% polyacrylamide gel to resolve the KTS insert variants. Co-amplification of the ribosomal RNA 36B4 was performed as an internal control using the following primers: 5′-[…]-3′ (sense; SEQ ID NO:5) and 5′-[…]-3′ (antisense; SEQ ID NO:6).

The next experiment relates to HOXA5. Briefly: HOXA5 mRNA re-expression by RT-PCR after 5-aza-dC. Particulars: MDA-MB-231 cells; 0.75 μM 5-aza-dC. The procedure: RT-PCR was performed using primers: 5′ […]-3′ (sense; SEQ ID NO:75) and 5′[…]-3′ (antisense; SEQ ID NO:76).
The next experiment deals with MCF-7 cells. The experiment is described as follows: Pon A induction of HOXA5 in MCF-7 clones with ecdysone-inducible HOXA5: p53 pathway and apoptosis. From the text:
Immunoblot Analysis: Proteins were visualized by Western analysis and 10% SDS-PAGE. The primary antibodies [anti-HOXA5 (HOXA5-2, BABCO), anti-p53 (AB-6, Oncogene Science), or anti-β-actin (AC-15, Sigma), anti-p21 (15091A, Pharmingen), anti-Mdm2 (65101A, Pharmingen), anti-PARP (AB-2, Oncogene Sciences), anti-dynein (Zymed) and anti- Na+, K+-ATPase (Ed Benz, Johns Hopkins) (also used as loading controls, with actin)] were used at 1:1000 dilution.
To test this possibility, breast cancer cells, MCF-7 and ZR75.1, which harbor wildtype p53 genes, were transfected with the full length HOXA5 and the ΔHOXA5 (homeodomain-deleted) expression plasmids and tested for colony-forming ability. No surviving colonies were obtained from HOXA5-transfected cells whereas those transfected with ΔHOXA5 and the vector control generated colonies with equal efficiency. To obtain stable cultures that could express HOXA5, clones of MCF-7 cells were generated in which the HOXA5 gene was placed under the control of an ecdysone-inducible promoter. Within 3 hours after induction of HOXA5 expression by the ecdysone analog, Ponasterone A (Pon A), the levels of p53 mRNA rose by 2-fold.

For the next experiment, the system named is breast cancer cell lines. Briefly: Growth inhibition of a panel of breast cancer cell lines by RA. The note with it: T47D, MDA-MB-435, MCF7 and ZR75-1 cell lines; 1 μM RA, 48 h.
Excerpt: as §2, with “Trichostatin A and all-trans-retinoic acid (RA) (Sigma) were reconstituted in absolute ethanol (solvent).” left out

The next experiment deals with RAR β. Briefly: RAR β expression by RT-PCR after drug treatment.
For a further experiment, the system named is RAR β2 promoter. Briefly: Methylation of RAR β2 promoter CpG island (Southern blotting, MSP) after drug treatment. The note with it: MCF7 cells; in the presence of RA.
[1] abbreviates: 0.4 mM 5-Aza-CdR and/or 1 μM RA.
Setting [2] is: 2 days, 100 ng/ml TSA and/or RA.

Results on 4 molecules are retold here after US6756200B2, “Aberrantly methylated genes as markers of breast malignancy” (The Johns Hopkins University School of Medicine, priority 2001, dated 2004).

Each structure is given as a SMILES string. Entries after “also recorded” stand apart in the source; their conditions may differ.

Turning to `Nc1ncn([C@H]2C[C@H](O)[C@@H](CO)O2)c(=O)n1` [5-aza-dC, 5-aza-2′-deoxycytidine], the “σ gene expression (RT-PCR)” value in the experiment on σ is reported as “reactivation of gene expression”. In the experiment on MDA-MB-231 cells (setting [1]), this molecule yielded a growth inhibition of 63%. Moreover, the “methylation of the σ CpG rich region (MSP)” value in the experiment with σ CpG island is “demethylation”. Further, the “cyclin D2 promoter methylation (MSP)” value in the experiment on cyclin D2 promoter is listed as “partially demethylated”. In addition, the “expression of 14.3.3σ” value in the experiment with 14.3.3σ was “restored expression”. In addition, in the experiment with cyclin D2 (0.75 μM 5-aza-dC), the “cyclin D2 mRNA expression (RT-PCR)” value is “restored”. Besides, the WT1 expression result with WT1 (MCF-7 cells, 0.75 μM 5-aza-dC, listed as 5-aza-deoxyC) is listed as “not seen; also recorded: did not cause WT1 expression”; in the experiment with WT1 (MDA-MB-231 cells, 0.75 μM 5-aza-dC, listed as 5-aza-deoxyC), “results in re-expression of the gene; also recorded: resulted in WT1 expression”. Besides, the “expression of HOXA5 mRNA” value in the experiment with HOXA5 was “re-initiated”.
For `CC(C)CC[C@@H](O)[C@](C)(O)[C@H]1CC[C@@]2(O)C3=CC(=O)[C@@H]4C[C@@H](O)[C@@H](O)C[C@]4(C)[C@H]3CC[C@]12C` [Pon A, Ponasterone A], in the experiment on MCF-7 cells, the DNA laddering entry was “observed”; the “levels of Bax protein” value was “not accompanied by a detectable change”; the “p53, p21, Mdm2 and HOXA5 induction (Western blotting)” value is 2-5 fold. Further, the “cells with micronucleus formation, membrane blebbing and ghost cell features” value in the experiment on MCF-7 cells (acridine orange staining) was found to be 70%. In addition, the cell death with MCF-7 cells (after 48 hours) was 80-90%. The “poly (ADP-ribose) polymerase cleavage” value with MCF-7 cells (by 12 hours) is listed as “underwent cleavage”. Also, in the experiment with MCF-7 cells (by 24 hours), the cell morphology result was “cell shrinkage”. For the same molecule, the “levels of p53 mRNA” value with MCF-7 cells (within 3 hours after induction) turned out to be 2 fold.
Regarding `CC1=C(/C=C/C(C)=C/C=C/C(C)=C/C(=O)O)C(C)(C)CCC1` [RA, all-trans-retinoic acid], the growth inhibition entry in the experiment with breast cancer cell lines was “growth inhibition”; in the experiment with MDA-MB-231 cells (setting [1]), 52%; in the experiment on MDA-MB-231 cells (setting [2]) it was 52%. For the same molecule, in the experiment with RAR β (T47D, MDA-MB-435, MCF7 and ZR75-1 cell lines, 1 μM RA, 48 h), the “RAR β expression” value is “induction of RAR β expression”. Further, the “methylation at RAR β2” value in the experiment on RAR β2 promoter is recorded as “persistence of methylation”.
For the molecule `CC(/C=C/C(=O)NO)=C\[C@@H](C)C(=O)c1ccc(N(C)C)cc1` [TSA, Trichostatin A], the growth inhibition in the experiment on MDA-MB-231 cells (setting [2]) is given as 77%. In the experiment with RAR β (MDA-MB-231 cells, 2 days, 100 ng/ml TSA with 1 μM RA), the “RAR β mRNA expression (RT-PCR)” value was “can reactivate RAR β expression”. The “expression of 14.3.3σ” value in the experiment on 14.3.3σ is “restored expression”. Also, the “cyclin D2 mRNA expression (RT-PCR)” value in the experiment on cyclin D2 (100 ng/ml TSA) is given as “re-expression”. The WT1 expression entry with WT1 (MDA-MB-231 and MCF-7 cells (either cell line), 100 ng/ml TSA) is on record as “no effect; also recorded: nor did TSA restore expression”.
